“And” between values parts separate entries of the source, which are not always exact repeats. Identical values can stand only once. Like-named read-outs stand apart in the source and are kept apart here.
Tests used:
P. falciparum = details: Table 3 section B, high throughput screen [27, 28], cited from earlier work; for EC50: read-out: ED50 in 3D7
[1] = system: chloroquine-sensitive strain 3D7 of P. falciparum; test: P. falciparum growth inhibition in culture, strain 3D7; format: cell-based, Plasmodium falciparum; details: for result of the 16 tested inhibitors in words (binding): summary of Table 5
[2] = system: chloroquine-resistant strain K1 of P. falciparum; test: P. falciparum growth inhibition in culture, strain K1; format: cell-based, Plasmodium falciparum
Tat = Tat (Human immunodeficiency virus type 1 group M subtype B, UniProt P04608); details: HIV-1 target Tat; read-out: Inhibitory effect (uM), IC50, Tat; cited from earlier work
KSHV protease = KSHV protease (Human herpesvirus 8 type P, UniProt Q2HRB6); test: Surface Plasmon Resonance, KSHV protease; format: binding; set-up: herpes simplex virus (HSV) proteases (including HSV2, VZV, EBV, CMV, and KSHV); details: SPR, FIG. 4
Experimental: (§1) Four inhibitors were evaluated; our top ranking one (TMPyP4) clearly binds to all three proteases as predicted. […] A third inhibitor, GW8510, predicted to bind fails (i.e., a misprediction). […] Our inhibitor prediction is completely consistent with the observed experimental data which is verified further by cell culture studies in FIG. 4 and compared to existing antiherpes drugs.

HSV protease = test: Surface Plasmon Resonance, HSV protease; format: binding; details: SPR, FIG. 4
Experimental: as §1

CMV protease = CMV protease (Human cytomegalovirus, UniProt P16753); test: Surface Plasmon Resonance, CMV protease; format: binding; set-up: herpes simplex virus (HSV) proteases (including HSV2, VZV, EBV, CMV, and KSHV); details: SPR, FIG. 4
Experimental: as §1

Integrase = Integrase (Human immunodeficiency virus type 1 group M subtype B, UniProt P04585); details: HIV-1 target Integrase; read-out: Inhibitory effect (uM), IC50, Integrase; cited from earlier work
HSV-1 strain F = test: HSV-1 infection of Vero cells, virus titer; format: cell-based; details: FIG. 5 bottom right panel; virus not named
[3] = system: HIV-1 gp41 HR1 wild-type and mutants; details: cited from earlier work
[4] = Table 3 section A, mean of at least two measurements, read-out: ED50 in 3D7
[5] = Table 5, P. falciparum ED50 in 3D7 and K1
[6] = Table 5, read-out: ED50 (μM) in 3D7
[7] = Table 3 section A, mean of at least two measurements, read-out: ED50 in K1
[8] = Table 5, read-out: ED50 (μM) in K1
[9] = Plasmodium falciparum, 3D7, Table 3 section A, mean of at least two measurements, read-out: ED50 in 3D7
[10] = Plasmodium falciparum, 3D7, Table 5, read-out: ED50 (μM) in 3D7
[11] = Plasmodium falciparum, K1, Table 3 section A, mean of at least two measurements, read-out: ED50 in K1
[12] = Plasmodium falciparum, K1, Table 5, read-out: ED50 (μM) in K1

COc1ccc(CCN2CCC(Nc3nc4ccccc4n3Cc3ccc(F)cc3)CC2)cc1 [Astemizole]
% Inhibition at 10 μM in (P. falciparum): 97.6%

CC1(C)S[C@@H]2[C@H](NC(=O)[C@H](NC(=O)N3CCNC3=O)c3ccccc3)C(=O)N2[C@H]1C(=O)O [Azlocillin]
EC50 (P. falciparum): 1.5 µM

CN1CCCC1CCn1cc(C2=C(c3c[nH]c4ccccc34)C(=O)NC2=O)c2ccccc21 (stereo not drawn) [Bisindolylmaleimide II]
EC50 [1, 4]: 1 to 10 µM
experimentally determined to work [1, 5]: N
EC50 [1, 6]: 1 to 10 µM
EC50 [2, 7]: 1 to 10 µM
EC50 [2, 8]: 1 to 10 µM

Cl.Cn1cc(C2=C(c3c4n(c5ccccc35)CCC(CN)C4)C(=O)NC2=O)c2ccccc21 (stereo not drawn) [Bisindolylmaleimide X]
EC50 [1, 4]: 1 to 10 µM
experimentally determined to work [1, 5]: N
EC50 [1, 6]: 1 to 10 µM
EC50 [2, 7]: 1 to 10 µM
EC50 [2, 8]: 1 to 10 µM

Oc1ccc(Cc2nc3c(Cc4ccccc4)nc(-c4ccc(O)cc4)cn3c2O)cc1 [Coelenterazine]
EC50 [1, 9]: 10 to 40 µM
EC50 [1, 10]: 10 to 40 µM
experimentally determined to work [1, 5]: N
EC50 [2, 11]: 1 to 10 µM
EC50 [2, 12]: 1 to 10 µM

COc1cc(/C=C/C(=O)CC(=O)/C=C/c2ccc(O)c(OC)c2)ccc1O [Curcumin]
IC50 (Tat): < 30 µM

COc1cccc2c1C(=O)c1c(O)c3c(c(O)c1C2=O)C[C@@](O)(C(C)=O)C[C@@H]3O[C@H]1C[C@H](N)[C@H](O)[C@H](C)O1 [Daunorubicin]
EC50 [1, 9]: 0.13 µM
EC50 [1, 10]: 0.125 µM
experimentally determined to work [1, 5]: Y (Y—yes (<=1uM ED50))
result of the 16 tested inhibitors in words (binding) [1]: very strong binding
% Inhibition at 10 μM in (P. falciparum): 99.6%
EC50 [2, 11]: < 1 µM
EC50 [2, 12]: < 1 µM

CN1C[C@H](C(=O)N[C@]2(C)O[C@@]3(O)[C@@H]4CCCN4C(=O)[C@H](Cc4ccccc4)N3C2=O)C[C@@H]2c3cccc4[nH]cc(c34)C[C@H]21 [Dihydroergotamine]
% Inhibition at 10 μM in (P. falciparum): 88.1%
EC50 (P. falciparum): 4 µM and 3 µM

COc1cccc2c1C(=O)c1c(O)c3c(c(O)c1C2=O)C[C@@](O)(C(=O)CO)C[C@@H]3O[C@H]1C[C@H](N)[C@@H](O)[C@H](C)O1 [Epirubicin]
% Inhibition at 10 μM in (P. falciparum): 98.4%

O=C1Nc2ccc3ncsc3c2/C1=C/Nc1ccc(S(=O)(=O)Nc2ccccn2)cc1 [GW8510]
disassociation constant (Kd), KSHV protease (KSHV protease): fails
EC50 [1, 4]: 1 to 10 µM
experimentally determined to work [1, 5]: N
EC50 [1, 6]: 1 to 10 µM
disassociation constant (Kd), HSV protease (HSV protease): fails
disassociation constant (Kd), CMV protease (CMV protease): fails
EC50 [2, 7]: 1 µM
EC50 [2, 8]: 1 µM

CCN(CCO)CCCC(C)Nc1ccnc2cc(Cl)ccc12 (stereo not drawn) [Hydroxychloroquine]
IC50 (Integrase): > 100 µM

CN([C@@H](Cc1ccc(OS(=O)(=O)c2cccc3cnccc23)cc1)C(=O)N1CCN(c2ccccc2)CC1)S(=O)(=O)c1cccc2cnccc12 [KN62]
EC50 [1, 4]: 0.69 µM
experimentally determined to work [1, 5]: Y (Y—yes (<=1uM ED50))
EC50 [1, 6]: 0.69 µM
result of the 16 tested inhibitors in words (binding) [1]: very strong binding
EC50 [2, 7]: < 1 µM
EC50 [2, 8]: < 1 µM

CN1C[C@H](CNC(=O)OCc2ccccc2)C[C@@H]2c3cccc4c3c(cn4C)C[C@H]21 [Metergoline]
% Inhibition at 10 μM in (P. falciparum): 85.9%
EC50 (P. falciparum): 5.4 µM

CN(Cc1cnc2nc(N)nc(N)c2n1)c1ccc(C(=O)N[C@@H](CCC(=O)O)C(=O)O)cc1 [Methotrexate]
% Inhibition at 10 μM in (P. falciparum): 98.4%
EC50 (P. falciparum): 0.05 µM

O=C1c2ccc3c4ccc5c6c(ccc(c7ccc(c2c37)C(=O)N1CCN1CCCCC1)c64)C(=O)N(CCN1CCCCC1)C5=O [PIPER]
EC50 [1, 4]: 10 to 40 µM
experimentally determined to work [1, 5]: N
EC50 [1, 6]: 10 to 40 µM
EC50 [2, 7]: 10 to 40 µM
EC50 [2, 8]: 10 to 40 µM

C=CC1=C(C)c2cc3[nH]c(cc4nc(cc5[nH]c(cc1n2)c(C)c5CCC(=O)O)C(CCC(=O)O)=C4C)c(C)c3C=C [Protoporphrin, Protoporphyrin IX]
EC50 [1, 9]: 10 to 40 µM
EC50 [1, 10]: 10 to 40 µM
experimentally determined to work [1, 5]: N
EC50 [2, 11]: 10 to 40 µM
EC50 [2, 12]: 10 to 40 µM

COc1ccc(C[C@H](N)C(=O)N[C@H]2[C@@H](O)[C@H](n3cnc4c(N(C)C)ncnc43)O[C@@H]2CO)cc1 [Puromycin]
% Inhibition at 10 μM in (P. falciparum): 98.9%

Cc1c(C(=O)c2cccc3ccccc23)c2cccc3c2n1[C@H](CN1CCOCC1)CO3 [R-(+)-WIN55212-2]
experimentally determined to work [1]: N
EC50 [1, 4]: 10 to 40 µM
EC50 [1, 6]: 10 to 40 µM
EC50 [2, 7]: 10 to 40 µM
EC50 [2, 8]: 10 to 40 µM

O=C(c1ccc(OCCN2CCCCC2)cc1)c1c(-c2ccc(O)cc2)sc2cc(O)ccc12 [Raloxifene]
% Inhibition at 10 μM in (P. falciparum): 97.1%
EC50 (P. falciparum): < 0.5 µM

Cc1nc2n(c(=O)c1CCN1CCC(c3noc4cc(F)ccc34)CC1)CCCC2 [Risperidone]
% Inhibition at 10 μM in (P. falciparum): 67.5%

CC[C@H](CO)Nc1nc(NCc2ccccc2)c2ncn(C(C)C)c2n1 [Roscovitine]
experimentally determined to work [1, 5]: N

Cc1ccc(NC(=O)c2ccc(CN3CCN(C)CC3)cc2)cc1Nc1nccc(-c2cccnc2)n1 [STI-571, Imatinib]
result of the 16 tested inhibitors in words (binding) [1]: moderate binding

O=CN1CCN(c2ccc(/C=C3\C(=O)Nc4ccccc43)cc2)CC1 [SU4984]
EC50 [1, 4]: > 40 µM
experimentally determined to work [1, 5]: N

Cc1c[nH]c(/C=C2\C(=O)Nc3ccccc32)c1CCC(=O)O [SU5402]
EC50 [1, 4]: > 40 µM
experimentally determined to work [1, 5]: N

Cc1cc(C)c(/C=C2\C(=O)Nc3ccc(Cl)cc32)[nH]1 [SU5614]
experimentally determined to work [1, 5]: N

CN(C)S(=O)(=O)c1ccc2c(c1)/C(=C/c1cc3c([nH]1)CCCC3)C(=O)N2 [SU6656]
disassociation constant (Kd), KSHV protease (KSHV protease): verified to not bind
EC50 [1, 4]: > 40 µM
experimentally determined to work [1, 5]: N
EC50 [1, 6]: 10 µM
disassociation constant (Kd), HSV protease (HSV protease): verified to not bind
disassociation constant (Kd), CMV protease (CMV protease): verified to not bind

O=C(O)CCC(=O)Nc1ccc(S(=O)(=O)Nc2nccs2)cc1 [Succinylsulfathiazole]
EC50 [1, 9]: > 40 µM
EC50 [1, 10]: > 40 µM
experimentally determined to work [1, 5]: N
EC50 [2, 11]: > 40 µM
EC50 [2, 12]: > 40 µM

O=C(O)c1cc(/N=N/c2ccc(S(=O)(=O)Nc3ccccn3)cc2)ccc1O [Sulfasalazine]
EC50 [1, 9]: > 40 µM
EC50 [1, 10]: > 40 µM
experimentally determined to work [1, 5]: N
EC50 [2, 11]: > 40 µM
EC50 [2, 12]: > 40 µM

CC[C@@]1(O)C(=O)OCc2c1cc1n(c2=O)Cc2cc3c(CN(C)C)c(O)ccc3nc2-1 [Topotecan]
% Inhibition at 10 μM in (P. falciparum): 80.1%

C[C@]12C=CC(=O)C=C1CC[C@@H]1C2=CC[C@]2(C)[C@@H](C(=O)CN3CCN(c4cc(N5CCCC5)nc(N5CCCC5)n4)CC3)CC[C@@H]12.O=C(O)/C=C\C(=O)O [U-74389G]
EC50 [1, 4]: 0.83 µM
experimentally determined to work [1, 5]: Y (Y—yes (<=1uM ED50))
EC50 [1, 6]: 0.825 µM
result of the 16 tested inhibitors in words (binding) [1]: very strong binding
EC50 [2, 7]: < 1 µM
EC50 [2, 8]: < 1 µM

CC[C@]1(O)C[C@@H]2CN(CCc3c([nH]c4ccccc34)[C@@](C(=O)OC)(c3cc4c(cc3OC)N(C)[C@H]3[C@@](O)(C(N)=O)[C@H](O)[C@]5(CC)C=CCN6CC[C@]43[C@@H]65)C2)C1 [Vindesine]
% Inhibition at 10 μM in (P. falciparum): 81.9%

Nc1nc2c(ncn2COCCO)c(=O)[nH]1 [acylovir]
effectiveness after passage for several cycles with both acylovir and TMPyP4 (HSV-1 strain F): complete resistance to acylovir occurs

Bisindolylmaleimide VII
EC50 [1, 4]: 1 to 10 µM
experimentally determined to work [1, 5]: N
EC50 [1, 6]: 1 to 10 µM
EC50 [2, 7]: 1 to 10 µM
EC50 [2, 8]: 1 to 10 µM

enfuvirtide
EC50 ([3]; HR1 Wild-type): 0.012 µg/mL
EC50 ([3]; HR1 mutation N42T + N43K): 0.388 µg/mL
EC50 ([3]; HR1 mutation N42T + N43S): 0.727 µg/mL
EC50 ([3]; HR1 mutation N42T): 0.045 µg/mL
EC50 ([3]; HR1 mutation V38A + N42D): 1.685 µg/mL
EC50 ([3]; HR1 mutation V38A + N42T): 1.782 µg/mL
EC50 ([3]; HR1 mutation V38A): 0.188 µg/mL
EC50 ([3]; HR1 mutation V38E + N42S): 6.156 µg/mL
